In article PMC10507085, “Pharmacological inhibition of TBK1/IKKε blunts immunopathology in a murine model of SARS-CoV-2 infection” (Nature Communications, 2023):

Experiments:
Assay in all cases: biochemical
Design in all cases: KINOMEscan competition binding, DNA-tagged kinase against immobilised ligand, qPCR read-out
Details in all cases: read-out: Percent Control
ACVR1B = ACVR1B (Homo sapiens, UniProt P36896)
AXL = AXL (Homo sapiens, UniProt P30530)
BLK = BLK (Homo sapiens, UniProt P51451)
BMPR1A = BMPR1A (Homo sapiens, UniProt P36894)
CHUK = CHUK (Homo sapiens, UniProt O15111)
EIF2AK1 = EIF2AK1 (Homo sapiens, UniProt Q9BQI3)
FGFR4 = FGFR4 (Homo sapiens, UniProt P22455)
LIMK2 = LIMK2 (Homo sapiens, UniProt P53671)
MAP3K6 = MAP3K6 (Homo sapiens, UniProt O95382)
MST1R = MST1R (Homo sapiens, UniProt Q04912)
NEK5 = NEK5 (Homo sapiens, UniProt Q6P3R8)
PDPK1 = PDPK1 (Homo sapiens, UniProt O15530)
PIP5K1C = PIP5K1C (Homo sapiens, UniProt O60331)
PRKCE = PRKCE (Homo sapiens, UniProt Q02156)
PTK6 = PTK6 (Homo sapiens, UniProt Q13882)
RIOK2 = RIOK2 (Homo sapiens, UniProt Q9BVS4)
ROCK1 = ROCK1 (Homo sapiens, UniProt Q13464)
[1] = molecular target: T1, RSK2(Kin.Dom.1-N-terminal) (Homo sapiens, UniProt P51812)
T1 construct: gene RPS6KA3; Kin.Dom.1 N-terminal

STK11 = STK11 (Homo sapiens, UniProt Q15831)
STK25 = STK25 (Homo sapiens, UniProt O00506)
Chain of STK25 (O00506 whole entry): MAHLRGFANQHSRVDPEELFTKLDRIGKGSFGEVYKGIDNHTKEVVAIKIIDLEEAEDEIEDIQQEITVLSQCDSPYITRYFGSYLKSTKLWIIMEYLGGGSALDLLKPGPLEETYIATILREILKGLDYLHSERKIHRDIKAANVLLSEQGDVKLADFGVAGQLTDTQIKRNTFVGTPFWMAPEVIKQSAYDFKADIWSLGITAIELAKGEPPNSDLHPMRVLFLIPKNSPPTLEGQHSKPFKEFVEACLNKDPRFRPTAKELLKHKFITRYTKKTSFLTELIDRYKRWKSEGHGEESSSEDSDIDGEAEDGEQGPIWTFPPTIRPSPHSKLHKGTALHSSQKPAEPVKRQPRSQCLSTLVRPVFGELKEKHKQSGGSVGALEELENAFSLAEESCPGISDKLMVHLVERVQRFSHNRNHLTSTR

Chain of PRKCE (Q02156 whole entry): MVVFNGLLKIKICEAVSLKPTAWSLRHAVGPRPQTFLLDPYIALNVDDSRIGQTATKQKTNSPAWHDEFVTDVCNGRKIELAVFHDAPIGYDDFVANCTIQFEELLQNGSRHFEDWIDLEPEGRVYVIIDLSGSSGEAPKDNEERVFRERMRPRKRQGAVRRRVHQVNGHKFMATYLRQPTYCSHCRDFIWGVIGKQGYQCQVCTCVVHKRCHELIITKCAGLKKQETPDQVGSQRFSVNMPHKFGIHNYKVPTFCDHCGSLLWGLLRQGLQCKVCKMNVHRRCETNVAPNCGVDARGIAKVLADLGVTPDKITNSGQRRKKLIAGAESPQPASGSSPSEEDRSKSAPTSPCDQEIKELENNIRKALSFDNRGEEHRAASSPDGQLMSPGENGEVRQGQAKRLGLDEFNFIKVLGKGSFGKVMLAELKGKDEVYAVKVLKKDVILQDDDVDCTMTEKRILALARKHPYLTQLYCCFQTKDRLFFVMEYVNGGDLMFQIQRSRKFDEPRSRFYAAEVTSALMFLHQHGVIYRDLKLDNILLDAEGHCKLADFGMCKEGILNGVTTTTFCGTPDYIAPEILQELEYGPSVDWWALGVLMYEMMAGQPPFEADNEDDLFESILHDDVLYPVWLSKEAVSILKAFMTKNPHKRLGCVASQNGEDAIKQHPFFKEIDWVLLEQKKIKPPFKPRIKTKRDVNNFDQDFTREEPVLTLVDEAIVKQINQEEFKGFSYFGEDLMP
Chain of PIP5K1C (O60331 whole entry): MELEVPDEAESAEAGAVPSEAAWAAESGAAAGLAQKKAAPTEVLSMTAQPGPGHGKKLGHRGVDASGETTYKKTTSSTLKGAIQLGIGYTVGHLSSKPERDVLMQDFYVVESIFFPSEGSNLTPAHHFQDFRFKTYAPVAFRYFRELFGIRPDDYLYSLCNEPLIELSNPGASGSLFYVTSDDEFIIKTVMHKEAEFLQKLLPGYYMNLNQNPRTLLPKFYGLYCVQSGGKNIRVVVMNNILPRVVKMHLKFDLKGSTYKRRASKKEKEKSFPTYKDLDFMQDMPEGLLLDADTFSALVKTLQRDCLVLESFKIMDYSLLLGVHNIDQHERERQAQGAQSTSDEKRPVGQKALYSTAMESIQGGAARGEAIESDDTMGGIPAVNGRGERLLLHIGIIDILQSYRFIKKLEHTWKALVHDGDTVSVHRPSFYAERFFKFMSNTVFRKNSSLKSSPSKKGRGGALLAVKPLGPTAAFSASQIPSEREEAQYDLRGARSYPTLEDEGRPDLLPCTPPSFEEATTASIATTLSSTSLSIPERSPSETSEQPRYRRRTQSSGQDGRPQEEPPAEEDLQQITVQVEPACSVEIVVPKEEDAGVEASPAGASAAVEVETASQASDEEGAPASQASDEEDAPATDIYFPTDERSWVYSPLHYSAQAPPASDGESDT
Chain of MAP3K6 (O95382 whole entry): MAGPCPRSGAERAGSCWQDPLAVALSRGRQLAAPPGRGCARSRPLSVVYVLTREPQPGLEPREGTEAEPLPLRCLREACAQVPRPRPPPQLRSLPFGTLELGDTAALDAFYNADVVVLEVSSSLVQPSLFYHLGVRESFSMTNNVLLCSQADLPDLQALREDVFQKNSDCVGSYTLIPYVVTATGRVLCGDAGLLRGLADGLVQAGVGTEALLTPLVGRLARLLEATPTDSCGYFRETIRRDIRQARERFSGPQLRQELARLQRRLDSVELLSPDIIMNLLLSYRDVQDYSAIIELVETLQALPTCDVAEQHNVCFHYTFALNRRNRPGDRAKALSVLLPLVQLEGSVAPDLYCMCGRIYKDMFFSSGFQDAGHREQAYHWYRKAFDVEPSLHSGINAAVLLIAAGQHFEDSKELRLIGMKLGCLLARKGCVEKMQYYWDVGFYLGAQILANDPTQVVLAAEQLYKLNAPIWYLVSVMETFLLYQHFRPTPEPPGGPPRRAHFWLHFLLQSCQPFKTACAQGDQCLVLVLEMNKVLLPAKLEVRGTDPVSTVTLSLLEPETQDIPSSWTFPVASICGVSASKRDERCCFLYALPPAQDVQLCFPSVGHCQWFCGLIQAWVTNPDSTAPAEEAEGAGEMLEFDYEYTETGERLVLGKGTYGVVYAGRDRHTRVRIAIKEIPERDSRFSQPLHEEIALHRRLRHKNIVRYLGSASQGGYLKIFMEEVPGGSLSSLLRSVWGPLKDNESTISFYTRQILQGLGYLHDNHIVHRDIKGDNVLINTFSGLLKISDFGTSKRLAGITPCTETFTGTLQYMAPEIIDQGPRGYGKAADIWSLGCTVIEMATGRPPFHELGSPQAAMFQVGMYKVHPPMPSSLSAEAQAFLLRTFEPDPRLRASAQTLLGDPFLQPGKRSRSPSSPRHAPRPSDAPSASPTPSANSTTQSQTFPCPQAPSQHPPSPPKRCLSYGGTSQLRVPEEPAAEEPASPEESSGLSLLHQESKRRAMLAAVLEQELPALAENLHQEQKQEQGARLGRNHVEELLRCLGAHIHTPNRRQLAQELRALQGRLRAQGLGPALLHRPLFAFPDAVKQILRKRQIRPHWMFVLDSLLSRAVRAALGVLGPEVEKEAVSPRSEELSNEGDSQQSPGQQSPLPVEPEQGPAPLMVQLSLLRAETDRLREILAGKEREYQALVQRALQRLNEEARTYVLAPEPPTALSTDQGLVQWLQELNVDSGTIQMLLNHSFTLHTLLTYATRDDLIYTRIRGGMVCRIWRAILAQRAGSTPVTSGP
T1 sequence (P51812 whole entry): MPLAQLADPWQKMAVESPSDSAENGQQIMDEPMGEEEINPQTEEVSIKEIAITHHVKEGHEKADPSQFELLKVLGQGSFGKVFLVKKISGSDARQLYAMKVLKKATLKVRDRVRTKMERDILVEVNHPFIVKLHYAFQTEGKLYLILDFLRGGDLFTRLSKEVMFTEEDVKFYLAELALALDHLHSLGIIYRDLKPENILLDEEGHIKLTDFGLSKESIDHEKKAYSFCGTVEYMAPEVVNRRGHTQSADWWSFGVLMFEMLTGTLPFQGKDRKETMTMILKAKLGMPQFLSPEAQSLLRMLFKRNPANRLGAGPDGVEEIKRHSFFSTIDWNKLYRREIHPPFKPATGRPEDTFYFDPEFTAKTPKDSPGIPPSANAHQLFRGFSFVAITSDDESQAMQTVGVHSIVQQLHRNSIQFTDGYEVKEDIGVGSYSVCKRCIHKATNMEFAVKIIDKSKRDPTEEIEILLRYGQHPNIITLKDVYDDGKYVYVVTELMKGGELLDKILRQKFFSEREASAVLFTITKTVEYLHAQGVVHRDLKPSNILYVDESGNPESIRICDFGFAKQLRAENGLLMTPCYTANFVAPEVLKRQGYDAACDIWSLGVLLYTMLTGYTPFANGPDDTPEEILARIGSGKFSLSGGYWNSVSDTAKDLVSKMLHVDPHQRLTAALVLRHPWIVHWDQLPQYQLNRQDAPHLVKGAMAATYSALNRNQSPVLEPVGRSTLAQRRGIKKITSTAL
Chain of STK11 (Q15831 whole entry): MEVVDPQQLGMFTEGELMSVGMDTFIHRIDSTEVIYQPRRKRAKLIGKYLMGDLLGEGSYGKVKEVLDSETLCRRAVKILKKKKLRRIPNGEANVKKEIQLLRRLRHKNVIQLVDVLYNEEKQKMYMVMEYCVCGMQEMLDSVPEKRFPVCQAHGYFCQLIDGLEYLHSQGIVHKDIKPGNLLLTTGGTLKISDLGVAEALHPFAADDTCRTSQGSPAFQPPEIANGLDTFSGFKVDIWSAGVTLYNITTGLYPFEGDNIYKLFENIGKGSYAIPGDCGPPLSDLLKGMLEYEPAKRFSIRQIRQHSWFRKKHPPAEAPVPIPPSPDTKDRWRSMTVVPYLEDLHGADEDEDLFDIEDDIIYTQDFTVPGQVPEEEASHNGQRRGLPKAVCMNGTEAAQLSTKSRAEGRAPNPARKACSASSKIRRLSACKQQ
Chain of PDPK1 (O15530 whole entry): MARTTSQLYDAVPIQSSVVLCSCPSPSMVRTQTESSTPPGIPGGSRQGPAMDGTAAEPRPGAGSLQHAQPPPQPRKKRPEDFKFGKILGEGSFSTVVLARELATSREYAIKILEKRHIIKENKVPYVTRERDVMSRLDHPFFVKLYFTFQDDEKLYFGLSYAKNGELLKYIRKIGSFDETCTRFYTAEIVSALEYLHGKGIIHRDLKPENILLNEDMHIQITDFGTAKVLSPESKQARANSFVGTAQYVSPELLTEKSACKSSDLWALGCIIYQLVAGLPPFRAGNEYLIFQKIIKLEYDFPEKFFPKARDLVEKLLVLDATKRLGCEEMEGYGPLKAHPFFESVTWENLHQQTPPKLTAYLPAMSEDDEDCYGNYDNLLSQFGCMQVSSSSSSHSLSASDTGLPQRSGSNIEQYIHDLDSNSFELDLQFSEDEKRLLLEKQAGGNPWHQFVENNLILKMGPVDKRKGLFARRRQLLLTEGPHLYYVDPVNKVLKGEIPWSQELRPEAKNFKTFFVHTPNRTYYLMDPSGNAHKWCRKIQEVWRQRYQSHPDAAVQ

Compound `Oc1ccc(C2=Cc3ccc(O)cc3OC2)cc1` [compound 1, idronoxil] has a remaining binding at 10 µM (ACVR1B) of 87%, a remaining binding at 10 µM (AXL) of 95% and a remaining binding at 10 µM (BLK) of 57%. It also gave a remaining binding at 10 µM (BMPR1A) of 89%, a remaining binding at 10 µM (CHUK) of 81% and a remaining binding at 10 µM (EIF2AK1) of 88%. For the same compound, the remaining binding at 10 µM (FGFR4) was 95%, the remaining binding at 10 µM (LIMK2) was 90% and the remaining binding at 10 µM (MAP3K6) was 88%. For the same compound, the remaining binding at 10 µM (MST1R) was 100%, the remaining binding at 10 µM (NEK5) was 89% and the remaining binding at 10 µM (PDPK1) was 79%. It also gave a remaining binding at 10 µM (PIP5K1C) of 25%, a remaining binding at 10 µM (PRKCE) of 92% and a remaining binding at 10 µM (PTK6) of 100%. For the same compound, the remaining binding at 10 µM (RIOK2) was 82%, the remaining binding at 10 µM (ROCK1) was 85% and the remaining binding at 10 µM [1] was 57%. It also gave a remaining binding at 10 µM (STK11) of 81% and a remaining binding at 10 µM (STK25) of 77%.
